Legend:
human DGKα = human DGKα (Homo sapiens, UniProt P23743); experiment: DGKα Biochemical Activity Assay (ADP-Glo); details: recombinant DGKα 1 nM, 100 μM ATP, 18:1 DAG/POPS/octylglucoside micelles, 1 hour at 25° C.; geometric mean; read-out: HTBS DGKa 1X ATP KM IC50;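 further: luminescent detection of ADP produced as DGKα phosphorylates DAG to phosphatidic acid, IC50 from four-parameter nonlinear curve fit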
Source text: Alternatively, the enzymatic activity of human DGKα was monitored in a biochemical assay in the presence or absence of compounds and using micelles containing 18:1 Diacylglycerol (DAG), 16:0-18:1 PS (POPS) and Octylglucoside as substrate. DGKα activity led to conversion of DAG and ATP to Phosphatidic Acid (PA) and ADP. Levels of ADP were monitored by bioluminescence using the ADP-Glo Kinase Assay (Promega) and were indicative of DGKα activity.
Recombinant DGKα (Carna Biosciences) in assay buffer (5 μL in 50 mM MOPS [3-(N-morpholino) propanesulfonic acid], pH 7.2; 0.0025% Triton X-100; 1 mM dithiothreitol; 5 mM MgCl2, 200 μM ATP) was added to the compound-containing plate and was incubated for 15 minutes at 25° C. […] The reaction mixture was incubated at 25° C. for 1 hour. ADP-Glo Reagent (10 μL, 10 mM Mg added) provided by the kit was added to each well and incubated at 25° C. for 40 minutes. Then, 20 μL of Kinase Detection Reagent was added and incubated at 25° C. for 40 minutes. Luciferase activity of each well was measured via luminescence on an Envision plate reader (PerkinElmer).
Least squares curve fittings were performed using a four-parameter variable slope nonlinear regression model. […] IC50 values from multiple experiments were averaged by geometric mean and the standard deviation was calculated.

[1] = system: Jurkat NFκB-luciferase cells; experiment: Jurkat NFκB-Luciferase Assay; type: cell-based; details: Homo sapiens; Jurkat NFκB-luciferase cells activated with anti-CD3 antibody (OKT3), 2.5 hrs at 37° C.; geometric mean; read-out: DGK NFKb Luciferase EC50
Experimental: The day after, the excess antibody was washed out five times with 100 ul/well of assay medium (RPMI supplemented with 10% fetal bovine serum) using a Biotek EL406 instrument and leaving 20 ul of residual volume in each well. Jurkat NFκB-luciferase cells (Promega #) were harvested and diluted to 1 million cells/ml in assay medium. […] Thirty microliters of medium containing the Jurkat NFκB-luciferase cells were then dispensed using a Biotek MicroFlo instrument in each well of the compound-containing plate. […] Forty microliters of One-Glo Ex (Promega) was then added to the assay mixture and luciferase activity was read on a Envision plate reader 7 minutes later.

Chain of human DGKα (P23743 whole entry): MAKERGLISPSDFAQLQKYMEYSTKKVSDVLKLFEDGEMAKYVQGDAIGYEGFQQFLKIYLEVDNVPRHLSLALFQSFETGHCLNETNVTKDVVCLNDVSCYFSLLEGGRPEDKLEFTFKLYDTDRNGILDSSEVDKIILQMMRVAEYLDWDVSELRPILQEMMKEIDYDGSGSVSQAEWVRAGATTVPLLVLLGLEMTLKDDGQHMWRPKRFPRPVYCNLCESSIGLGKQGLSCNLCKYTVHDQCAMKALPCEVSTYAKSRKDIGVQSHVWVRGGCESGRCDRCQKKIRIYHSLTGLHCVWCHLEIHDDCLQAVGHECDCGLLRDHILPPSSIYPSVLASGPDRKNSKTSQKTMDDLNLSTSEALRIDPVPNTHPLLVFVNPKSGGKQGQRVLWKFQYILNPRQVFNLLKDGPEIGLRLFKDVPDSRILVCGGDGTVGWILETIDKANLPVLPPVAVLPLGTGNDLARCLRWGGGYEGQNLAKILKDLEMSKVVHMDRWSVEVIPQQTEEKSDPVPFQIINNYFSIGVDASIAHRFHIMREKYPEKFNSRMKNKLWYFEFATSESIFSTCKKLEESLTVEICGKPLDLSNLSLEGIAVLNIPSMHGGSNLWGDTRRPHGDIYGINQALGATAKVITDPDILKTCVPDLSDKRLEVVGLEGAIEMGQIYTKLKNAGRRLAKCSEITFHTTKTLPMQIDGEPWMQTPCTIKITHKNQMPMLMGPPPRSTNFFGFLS

| Compound | IC50 (human DGKα) | EC50 [1] |
| --- | --- | --- |
| Cc1nnc2nc(N(CC(F)F)c3cccc(C#CC4(C(F)(F)F)CC4)c3F)c3c(F)cccc3n12 [Example 54, N-(2,2-difluoroethyl)-6-fluoro-N-[2-fluoro-3-[2-[1-(trifluoromethyl)cyclopropyl]ethynyl]phenyl]-1-methyl-[1,2,4]triazolo[4,3-a]quinazolin-5-amine] | 32.8 nM | 1.64 nM |
| Cc1nnc2nc(N(CC(F)F)c3cccc(C#CC(C)(C)C(F)F)c3F)c3cc(F)ccc3n12 [Example 55, N-[3-(4,4-difluoro-3,3-dimethyl-but-1-ynyl)-2-fluoro-phenyl]-N-(2,2-difluoroethyl)-7-fluoro-1-methyl-[1,2,4]triazolo[4,3-a]quinazolin-5-amine] | 21.6 nM | 3.42 nM |
| Cc1nnc2nc(N(CC(F)F)c3cccc(C#CC4(C)CC4)c3F)c3cc(F)ccc3n12 [Example 56, N-(2,2-difluoroethyl)-7-fluoro-N-[2-fluoro-3-[2-(1-methylcyclopropyl)ethynyl]phenyl]-1-methyl-[1,2,4]triazolo[4,3-a]quinazolin-5-amine] | 13.5 nM | 0.805 nM |
| CC(C)(C#Cc1cccc(N(CC(F)F)c2nc3nncn3c3ccc(F)cc23)c1F)C(F)F [Example 57, N-[3-(4,4-difluoro-3,3-dimethyl-but-1-ynyl)-2-fluoro-phenyl]-N-(2,2-difluoroethyl)-7-fluoro-[1,2,4]triazolo[4,3-a]quinazolin-5-amine] | 46.2 nM | 0.669 nM |
| Cc1nnc2nc(N3c4cccc(C#CC5(C(F)(F)F)CC5)c4CCC3C)c3c(F)cccc3n12 (centres unmarked) [Example 58, 6-fluoro-1-methyl-5-(2-methyl-5-((1-(trifluoromethyl)cyclopropyl)ethynyl)-3,4-dihydroquinolin-1(2H)-yl)-[1,2,4]triazolo[4,3-a]quinazoline] | 78.3 nM | 3.67 nM |
| Cc1nnc2nc(N3c4cccc(C#CC(C)(C)O)c4CCC3C)c3c(F)cccc3n12 (centres unmarked) [Example 59, 4-(1-(6-fluoro-1-methyl-[1,2,4]triazolo[4,3-a]quinazolin-5-yl)-2-methyl-1,2,3,4-tetrahydroquinolin-5-yl)-2-methylbut-3-yn-2-ol] | 11.2 nM | 11.7 nM |
| CC(C)(O)C#Cc1cc(N(CC(F)F)c2nc3nncn3c3c(Cl)cc(F)cc23)ccn1 [Example 60, 4-(4-((9-chloro-7-fluoro-[1,2,4]triazolo[4,3-a]quinazolin-5-yl)(2,2-difluoroethyl)amino)pyridin-2-yl)-2-methylbut-3-yn-2-ol] | 69.2 nM | 532 nM |
| CC1(C#Cc2cc(N(CC(F)F)c3nc4nncn4c4c(Cl)cc(F)cc34)ccn2)CC1 [Example 61, 9-chloro-N-(2,2-difluoroethyl)-7-fluoro-N-(2-((1-methylcyclopropyl)ethynyl)pyridin-4-yl)-[1,2,4]triazolo[4,3-a]quinazolin-5-amine] | 8.48 nM | 3.36 nM |
| Cc1nnc2nc(N(CC(F)F)c3cc(F)cc(C#CC(C)(C)c4ccncc4)c3)c3c(F)c(F)ccc3n12 [Example 62, N-(2,2-difluoroethyl)-6,7-difluoro-N-(3-fluoro-5-(3-methyl-3-(pyridin-4-yl)but-1-yn-1-yl)phenyl)-1-methyl-[1,2,4]triazolo[4,3-a]quinazolin-5-amine] | 80.1 nM | 3.24 nM |
| Cc1nnc2nc(N3CCOCc4c(C#CC(C)(C)C(=O)NC(C)(C)C(F)(F)F)cccc43)c3c(F)c(F)ccc3n12 [Example 63, 4-(1-(6,7-difluoro-1-methyl-[1,2,4]triazolo[4,3-a]quinazolin-5-yl)-1,2,3,5-tetrahydrobenzo[e][1,4]oxazepin-6-yl)-2,2-dimethyl-N-(1,1,1-trifluoro-2-methylpropan-2-yl)but-3-ynamide] | 19.4 nM | 4.17 nM |
| Cc1nnc2nc(N3CCOCc4c(C#CC(C)(C)C(=O)NC5(C(F)(F)F)CC5)cccc43)c3c(F)c(F)ccc3n12 [Example 64, 4-(1-(6,7-difluoro-1-methyl-[1,2,4]triazolo[4,3-a]quinazolin-5-yl)-1,2,3,5-tetrahydrobenzo[e][1,4]oxazepin-6-yl)-2,2-dimethyl-N-(1-(trifluoromethyl)cyclopropyl)but-3-ynamide] | 9.97 nM | 7.43 nM |
| Cc1nnc2nc(N3CCCc4c(C#CC(C)(C)C(=O)NC5(C(F)(F)F)CC5)cccc43)c3c(F)cccc3n12 [Example 65, 4-(1-(6-fluoro-1-methyl-[1,2,4]triazolo[4,3-a]quinazolin-5-yl)-1,2,3,4-tetrahydroquinolin-5-yl)-2,2-dimethyl-N-(1-(trifluoromethyl)cyclopropyl)but-3-ynamide] | 189 nM | 46.7 nM |
| Cc1cnc(C(C)(C)C#Cc2cccc3c2COCCN3c2nc3nnc(C)n3c3ccc(F)c(F)c23)o1 [Example 66, 1-(6,7-difluoro-1-methyl-[1,2,4]triazolo[4,3-a]quinazolin-5-yl)-6-(3-methyl-3-(5-methyloxazol-2-yl)but-1-yn-1-yl)-1,2,3,5-tetrahydrobenzo[e][1,4]oxazepine] | 12.8 nM | 6.78 nM |
| Cc1nnc2nc(N(CC(F)F)c3cc(F)cc(C#CC(C)(C)c4cccnc4)c3)c3c(F)c(F)ccc3n12 [Example 67, N-(2,2-difluoroethyl)-6,7-difluoro-N-(3-fluoro-5-(3-methyl-3-(pyridin-3-yl)but-1-yn-1-yl)phenyl)-1-methyl-[1,2,4]triazolo[4,3-a]quinazolin-5-amine] | 156 nM | 11.6 nM |
| Cc1nnc2nc(N(CC(F)F)c3cc(F)cc(C#CC(C)(C)c4ccccn4)c3)c3c(F)c(F)ccc3n12 [Example 68, N-(2,2-difluoroethyl)-6,7-difluoro-N-(3-fluoro-5-(3-methyl-3-(pyridin-2-yl)but-1-yn-1-yl)phenyl)-1-methyl-[1,2,4]triazolo[4,3-a]quinazolin-5-amine] | 191 nM | 9.68 nM |
| Cc1nnc2nc(N3CCCc4c(C#CC(C)(C)C(=O)N5CCC(F)(F)CC5)cccc43)c3c(F)cccc3n12 [Example 69, 1-(4,4-difluoropiperidin-1-yl)-4-(1-(6-fluoro-1-methyl-[1,2,4]triazolo[4,3-a]quinazolin-5-yl)-1,2,3,4-tetrahydroquinolin-5-yl)-2,2-dimethylbut-3-yn-1-one] | 70.5 nM | 2.26 nM |
| Cc1nnc2nc(N3CCCc4c(C#CC(C)(C)C(=O)N5CCOC(C)(C)C5)cccc43)c3c(F)cccc3n12 [Example 70, 1-(2,2-dimethylmorpholino)-4-(1-(6-fluoro-1-methyl-[1,2,4]triazolo[4,3-a]quinazolin-5-yl)-1,2,3,4-tetrahydroquinolin-5-yl)-2,2-dimethylbut-3-yn-1-one] | 29.2 nM | 5.62 nM |
| Cc1nnc2nc(N3CCCc4c(C#CC(C)(C)c5ccccn5)cccc43)c3c(F)cccc3n12 [Example 71, 6-fluoro-1-methyl-5-(5-(3-methyl-3-(pyridin-2-yl)but-1-yn-1-yl)-3,4-dihydroquinolin-1(2H)-yl)-[1,2,4]triazolo[4,3-a]quinazoline] | 124 nM | 11.3 nM |
| Cc1cnc(C(C)(C)C#Cc2cccc3c2CCCN3c2nc3nnc(C)n3c3cccc(F)c23)o1 [Example 72, 2-(4-(1-(6-fluoro-1-methyl-[1,2,4]triazolo[4,3-a]quinazolin-5-yl)-1,2,3,4-tetrahydroquinolin-5-yl)-2-methylbut-3-yn-2-yl)-5-methyloxazole] | 19.8 nM | 2.2 nM |

Source: US11976072B2, “Diacylglycerol kinase modulating compounds” (priority 2021, dated 2024)
